One assay deals with Aurora. In words: Aurora activity of analogues. It counts as biochemical.
The test system of another assay is panel of 75 kinases. In words: Kinase panel profiling at 200 nM. Particulars: 200 nM profiling.
The test system of assay [1] is Pancreatic cancer cells (PSN-1). In words: Cell cycle analysis, propidium iodide flow cytometry. The class given is cell-based. Particulars: PSN-1, 30 nM, 24 hours.
In the next assay the target is T1, AXL kinase (Homo sapiens, UniProt P30530).
T1 sequence (P30530 26-894): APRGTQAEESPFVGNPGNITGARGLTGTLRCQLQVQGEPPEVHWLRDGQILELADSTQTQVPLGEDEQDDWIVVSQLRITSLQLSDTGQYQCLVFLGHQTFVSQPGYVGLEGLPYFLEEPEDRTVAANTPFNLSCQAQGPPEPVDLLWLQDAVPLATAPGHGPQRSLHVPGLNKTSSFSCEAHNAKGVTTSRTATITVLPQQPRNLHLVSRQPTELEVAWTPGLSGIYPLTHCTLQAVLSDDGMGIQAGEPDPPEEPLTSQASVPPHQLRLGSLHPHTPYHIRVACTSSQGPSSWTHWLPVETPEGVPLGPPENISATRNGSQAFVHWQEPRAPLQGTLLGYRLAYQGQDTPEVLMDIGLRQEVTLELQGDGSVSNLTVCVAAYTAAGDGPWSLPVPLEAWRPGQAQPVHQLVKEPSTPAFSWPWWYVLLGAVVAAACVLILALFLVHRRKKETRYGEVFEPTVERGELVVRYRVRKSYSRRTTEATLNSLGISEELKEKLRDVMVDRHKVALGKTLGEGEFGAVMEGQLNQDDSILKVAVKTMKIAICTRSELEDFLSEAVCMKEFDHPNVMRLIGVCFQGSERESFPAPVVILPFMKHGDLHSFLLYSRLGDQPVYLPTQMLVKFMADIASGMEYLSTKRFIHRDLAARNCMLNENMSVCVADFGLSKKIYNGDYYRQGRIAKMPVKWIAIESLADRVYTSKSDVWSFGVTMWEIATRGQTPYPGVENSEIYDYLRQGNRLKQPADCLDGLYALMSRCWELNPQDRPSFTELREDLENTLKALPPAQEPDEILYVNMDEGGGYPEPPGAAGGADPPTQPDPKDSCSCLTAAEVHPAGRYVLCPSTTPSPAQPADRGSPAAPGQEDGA
Description: AXL kinase biochemical assay.

With `CN1CCN(Cc2ccc(Nc3ncc(Cl)c(-c4ccc(F)cc4S(=O)(=O)N(C)C)n3)cc2)CC1` [Compound 26], the “Aurora activity” value with Aurora is listed as “strong aurora activity”.
Take `CN1CCN(Cc2ccc(Nc3ncc(Cl)c(Nc4ccccc4S(=O)(=O)N(C)C)n3)cc2)CC1` [Compound 13]: the “activity against MER, TYRO3, Aurora A and B, JAK2, ALK, ABL1 and CHEK1” value in the assay with panel of 75 kinases is on record as “strong activity”. Besides, in assay [1], the “G2/M (4N) population of cells” value is recorded as “significant increase” and the “cells with ≥4N DNA (8N peak, endoreduplication)” value is reported as “accumulation of cells with ≥4N DNA”.
In turn, `CN1CCN(c2ccc(Nc3nc(-c4ccc(F)c(Cl)c4)cc(-c4ccc[nH]4)n3)cc2F)CC1` [Compound 1] registered a half-maximal inhibitory concentration (IC50) on AXL kinase of 33 µM.
As to `CN1CCN(Cc2ccc(Nc3ncc(F)c(-c4ccc(F)cc4S(=O)(=O)N4CCCC4)n3)cc2)CC1` [Compound 16], the “Aurora activity” value in the assay on Aurora is on record as “strong aurora activity”.
The molecule `CN1CCN(c2ccc(Nc3nc(-c4ccc(F)c(Cl)c4)cc(-c4ccc(F)c(Cl)c4)n3)cc2F)CC1` [Compound 2] had an IC50 against AXL kinase of 47 µM.
`CN1CCN(Cc2ccc(Nc3ncc(Cl)c(-c4ccc(F)cc4S(=O)(=O)N4CCCC4)n3)cc2)CC1` [Compound 27]: the “Aurora activity” value with Aurora is on record as “strong aurora activity”.
Consider `Cc1cnc(Nc2ccc(CN3CCN(C)CC3)cc2)nc1-c1ccc(F)cc1S(=O)(=O)N1CCCC1` [Compound 15], for which the “Aurora activity” value in the assay with Aurora is listed as “strong aurora activity”.

Values taken from paper PMC3254106 (ACS medicinal chemistry letters, 2011).
